Structures can show the parent of a compound that is named as a salt. Where two headings read alike, the source gives them in different places.
Assays:
[1] = test system: leukotriene pathway in human whole blood (LTB4 levels); test: Human whole blood assay (A23187-stimulated LTB4); type: cell-based; details: Homo sapiens, read-out: LTB4 IC50 1:1
Procedure, shortened: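 Heparinised human whole blood diluted 1:1 in RPMI, pre-incubated 15 min at 37° Celsius with compound, then stimulated with A23187 (7 μg/mL) for 30 min at 37° Celsius. Plasma LTB4 measured by immunoassay kit; IC50 from 4-parameter fit; single replicate per plate, at least one healthy donor.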

human FLAP = human FLAP (Homo sapiens (Human), UniProt P20292); test: FLAP binding assay (HTRF format); details: HTRF format
human FLAP, sequence (P20292 whole entry): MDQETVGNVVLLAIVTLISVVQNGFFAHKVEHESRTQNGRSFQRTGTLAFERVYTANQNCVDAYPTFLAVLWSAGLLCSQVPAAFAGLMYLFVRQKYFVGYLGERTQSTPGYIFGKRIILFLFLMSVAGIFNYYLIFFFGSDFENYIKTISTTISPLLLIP
Procedure, shortened: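 Binding of compounds to FLAP read out as HTRF ratio. Values are the mean of two assay plates, each sample run in duplicate per plate.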

[2] = human whole blood diluted 1:1 in RPMI, A23187-stimulated LTB4
[3] = human FLAP wild type, average of two plates, duplicates
[4] = human whole blood diluted 1:1, A23187-stimulated

Row | Compound | Ki (human FLAP; wild type FLAP) [nM] | IC50 [1, 2] [nM] | Ki (human FLAP; [3]) [nM] | IC50 [1, 4] [nM] | IC50 [1] [nM]
1 | C[Si](C)(C)CCOCOc1cc(C(F)(F)F)ccc1-c1ccc(-c2cnc(N)nc2)c(F)c1 [Example 557, 5-[3-Fluoro-4′-(trifluoromethyl)-2′-{[2-(trimethylsilyl)ethoxy]methoxy}biphenyl-4-yl]-pyrimidin-2-amine] | 147 | – | – | – | 1070
2 | Nc1cnc(-c2ccc(-c3ccccc3S(=O)(=O)N[C@H](c3ccccc3)C(F)(F)F)cc2F)cn1 [Example 18, (R)-4′-(5-Aminopyrazin-2-yl)-3′-fluoro-N-[(1R)-2,2,2-trifluoro-1-phenylethyl]biphenyl-2-sulfonamide] | – | 70 | 2 | – | –
3 | COc1c(-c2ccccc2S(C)(=O)=O)ccc(-c2cnc(N)cn2)c1F [Example 835, 5-[3-Fluoro-2-methoxy-2′-(methylsulfonyl)biphenyl-4-yl]pyrazin-2-amine] | ~354 | – | – | 417 | –
4 | Nc1ncc(-c2ccc(-c3ccccc3S(=O)(=O)N3CCCC(CO)C3)cc2F)cc1F (racemic) [Example 672, (1-((4′-(6-Amino-5-fluoropyridin-3-yl)-3′-fluoro-[1,1′-biphenyl]-2-yl)sulfonyl)piperidin-3-yl)methanol] | 13.7 | – | – | 196 | –
5 | Nc1ncc(-c2ccc(-c3ccccc3S(=O)(=O)NCC3CC3)cc2F)cn1 [Example 283, 4′-(2-Aminopyrimidin-5-yl)-N-(cyclopropylmethyl)-3′-fluorobiphenyl-2-sulfonamide trifluoroacetic acid] | – | 119 | 9 | – | –
6 | Nc1cnc(-c2ccc(-c3ccccc3Oc3ccnc(C(F)(F)F)c3)cc2F)cn1 [Example 610, 5-(3-Fluoro-2′-{[2-(trifluoromethyl)pyridin-4-yl]oxy}biphenyl-4-yl)pyrazin-2-amine] | 27.4 | – | – | 117 | –
7 | CC(C)Oc1ncccc1-c1ccc(-c2cnc(N)cn2)c(F)c1 [Example 401, 5-{2-Fluoro-4-[2-(1-methylethoxy)pyridin-3-yl]phenyl}pyrazin-2-amine] | 158 | – | – | 538 | –
8 | Nc1cnc(Sc2ccccc2-c2ccc(-c3cnc(N)nc3)c(F)c2)nc1 [Example 329, 5-{2′-[(5-Aminopyrimidin-2-yl)sulfanyl]-3-fluorobiphenyl-4-yl}pyrimidin-2-amine formate salt] | – | 66 | 12 | – | –
9 | Nc1cnc(Sc2ccccc2-c2ccc(-c3cnc(N)cn3)c(F)c2)cn1 [Example 741, 5-{[4′-(5-Aminopyrazin-2-yl)-3′-fluorobiphenyl-2-yl]sulfanyl}pyrazin-2-amine] | 4.6 | – | – | 26.3 | –
10 | CC(=O)N1CCC(S(=O)(=O)c2ncccc2-c2ccc(-c3cnc(N)nc3)c(F)c2)CC1 [Example 815] | 256 | – | – | 128 | –
11 | CS(=O)(=O)Nc1ccccc1-c1ccc(-c2cnc3[nH]ccc3n2)c(F)c1 [Example 369, N-[3′-Fluoro-4′-(5H-pyrrolo[2,3-b]pyrazin-2-yl)biphenyl-2-yl]methanesulfonamide] | – | 375 | 17 | – | –
12 | CCNS(=O)(=O)c1cc(C(F)(F)F)ccc1-c1cnc(-c2cnc(N)nc2)c(F)c1 [Example 674, 2-[6-(2-Aminopyrimidin-5-yl)-5-fluoropyridin-3-yl]-N-ethyl-5-(trifluoromethyl)benzenesulfonamide] | 2.4 | – | – | 17.4 | –
13 | Nc1cnc(-c2ccc(-c3ccccc3-c3ccc(-c4cnc(N)cn4)c(F)c3)cc2F)cn1 [Example 602, 5,5′-(3,3″-Difluoro-1,1′:2′,1″-terphenyl-4,4″-diyl)dipyrazin-2-amine] | 0.6 | – | – | 16.7 | –
14 | O=S(=O)(c1ccccc1-c1ccc(-c2cnc3[nH]ccc3n2)c(F)c1)N1CCOCC1 [Example 375, 2-[3-Fluoro-2′-(morpholin-4-ylsulfonyl)biphenyl-4-yl]-5H-pyrrolo[2,3-b]pyrazine] | – | 31 | 2 | – | –
15 | Nc1ncc(-c2ccc(-c3ccccc3S(=O)(=O)N3CC4(C3)CS(=O)(=O)C4)cc2F)cn1 [Example 313, 6-((4′-(2-Aminopyrimidin-5-yl)-3′-fluoro-[1,1′-biphenyl]-2-yl)sulfonyl)-2-thia-6-azaspiro[3.3]heptane 2,2-dioxide] | – | 574 | 397 | – | –
16 | Nc1cnc(-c2ccc(-c3ccc(C(F)(F)F)cc3-c3cnc(N)nc3)cc2F)cn1 [Example 853, 5-[4′-(5-Aminopyrazin-2-yl)-3′-fluoro-4-(trifluoromethyl)biphenyl-2-yl]pyrimidin-2-amine] | 4.7 | – | – | 45.6 | –
17 | CC(C)(C)NS(=O)(=O)c1ccccc1-c1ccc(-c2cnc(N)cn2)cc1 [Example 571, 4′-(5-Aminopyrazin-2-yl)-N-tert-butylbiphenyl-2-sulfonamide] | 2 | – | – | 91 | –
18 | O=S(=O)(c1ccccc1-c1ccc(-c2cnc3c(c2)OCCN3)c(F)c1)N1CCCCC1 [Example 386, 7-[3-Fluoro-2′-(piperidin-1-ylsulfonyl)biphenyl-4-yl]-3,4-dihydro-2H-pyrido[3,2-b][1,4]oxazine] | – | 77 | 2 | – | –
19 | N#Cc1nc(-c2ccc(-c3ccccc3Oc3nccc(N)n3)cc2F)cnc1N [Example 695, 3-Amino-6-{2′-[(4-aminopyrimidin-2-yl)oxy]-3-fluorobiphehenyl-4-yl}pyrazine-2-carbonitrile trifluoroacetic acid salt] | 8.4 | – | – | 336 | –
20 | N#Cc1nc(N)cnc1-c1ccc(-c2ccc(C(F)(F)F)cc2S(=O)(=O)NCCO)cc1F [Example 712, 4′-(5-Amino-3-cyanopyrazin-2-yl)-3′-fluoro-N-(2-hydroxyethyl)-4-(trifluoromethyl)biphenyl-2-sulfonamide] | 1.9 | – | – | 52.3 | –
21 | Nc1cnc(-c2ccc(-c3cccnc3S(=O)(=O)C3CCCCC3)cc2F)cn1 [Example 808, 5-(4-(2-(Cyclohexylsulfonyl)pyridin-3-yl)-2-fluorophenyl)pyrazin-2-amine hydrochloride] | 0.4 | – | – | 6.37 | –
22 | CC(C)CNS(=O)(=O)c1ccccc1-c1ccc(-c2ccc(N)nc2)c(F)c1 [Example 348, 4′-(6-Aminopyridin-3-yl)-3′-fluoro-N-iso-butyl-[1,1′-biphenyl]-2-sulfonamide] | – | 106 | 5 | – | –
23 | COc1ncccc1-c1ccc(-c2cnc(N)cn2)c(F)c1 [Example 404, 5-[2-Fluoro-4-(2-methoxypyridin-3-yl)phenyl]pyrazin-2-amine] | 155 | – | – | 1490 | –

Second part, led by results:

Row | Ki (human FLAP; wild type FLAP) [nM] | IC50 [1, 2] [nM] | Ki (human FLAP; [3]) [nM] | IC50 [1, 4] [nM] | Compound | IC50 [1] [nM]
24 | – | 176 | 35 | – | NC(=O)CSc1ccccc1-c1ccc(-c2cnc(N)cn2)c(F)c1 [Example 200, 2-{[4′-(5-Aminopyrazin-2-yl)-3′-fluorobiphenyl-2-yl]sulfanyl}acetamide] | –
25 | – | 11 | 1 | – | CC(C)(C)[C@H](CO)NS(=O)(=O)c1ccccc1-c1ccc(-c2cnc(N)cn2)c(F)c1 [Example 150, (R)-4′-(5-Aminopyrazin-2-yl)-3′-fluoro-N-(1-hydroxy-3,3-dimethylbutan-2-yl)-[1,1′-biphenyl]-2-sulfonamide] | –
26 | – | 60 | 3 | – | Nc1cnc(-c2ccc(-c3ccccc3S(=O)(=O)NCC3CCC3)cc2F)cn1 [Example 9, 4′-(5-Aminopyrazin-2-yl)-N-(cyclobutylmethyl)-3′-fluorobiphenyl-2-sulfonamide] | –
27 | – | 150 | 5 | – | CC(C)C[C@@H](CO)NS(=O)(=O)c1ccccc1-c1ccc(-c2cnc(N)cn2)c(F)c1 [Example 79, 4′-(5-Aminopyrazin-2-yl)-3′-fluoro-N-[(1S)-1-(hydroxymethyl)-3-methylbutyl]biphenyl-2-sulfonamide] | –
28 | – | 375 | 83 | – | CCCCCCS(=O)(=O)c1ccccc1-c1ccc(-c2cnc(N)cn2)c(F)c1 [Example 198, 5-[3-Fluoro-2′-(hexylsulfonyl)biphenyl-4-yl]pyrazin-2-amine] | –
29 | – | 8 | 2 | – | CC(C)[C@@H](CO)NS(=O)(=O)c1ccccc1-c1ccc(-c2cnc(N)cn2)c(F)c1 [Example 148, (S)-4′-(5-Aminopyrazin-2-yl)-3′-fluoro-N-(1-hydroxy-3-methylbutan-2-yl)-[1,1′-biphenyl]-2-sulfonamide] | –
30 | – | 43 | 6 | – | Nc1cnc(-c2ccc(-c3ccccc3S(=O)(=O)NC3CC3)cc2F)cn1 [Example 89, 4′-(5-Aminopyrazin-2-yl)-N-cyclopropyl-3′-fluorobiphenyl-2-sulfonamide] | –
31 | – | 358 | 286 | – | CS(=O)(=O)Nc1ccccc1-c1ccc(-c2cnc(N)cn2)c(F)c1 [Example 2, N-[4′-(5-Aminopyrazin-2-yl)-3′-fluorobiphenyl-2-yl]methanesulfonamide] | –
32 | 213 | – | – | 323 | C[C@@H](NC(=O)c1ccccc1-c1ccc(-c2cnc(N)cn2)c(F)c1)C(F)(F)F [Example 511, 4′-(5-Aminopyrazin-2-yl)-3′-fluoro-N-[(1R)-2,2,2-trifluoro-1-methylethyl]biphenyl-2-carboxamide] | –
33 | – | 370 | 35 | – | Nc1cnc(-c2ccc(-c3ccccc3S(N)(=O)=O)cc2F)cn1 [Example 5, 4′-(5-Aminopyrazin-2-yl)-3′-fluorobiphenyl-2-sulfonamide] | –
34 | 54 | – | – | 1600 | CC(C)(C)NS(=O)(=O)c1ccccc1-c1ccc(-c2ccc(N)cn2)c(F)c1 [Example 427, 4′-(5-Aminopyridin-2-yl)-N-tert-butyl-3′-fluorobiphenyl-2-sulfonamide] | –
35 | – | 217 | 35 | – | NCC1CN(S(=O)(=O)c2ccccc2-c2ccc(-c3cnc(N)cn3)c(F)c2)C1 [Example 124, 5-(2′-{[3-(Aminomethyl)azetidin-1-yl]sulfonyl}-3-fluorobiphenyl-4-yl)pyrazin-2-amine] | –
